For the series the following is noted: Liquid.

SMILES strings stand for the structures. ± gives the expanded uncertainty stated by the source.

Take `CO` [methanol]: the vapor or sublimation pressure – broadly, the pressure of vapour in equilibrium with the condensed phase – (337.57 K) amounted to 101.3 ± 0.86 kPa.
Consider `COC(C)=O` [methyl ethanoate], for which, for the setting “329.97 K”, the “vapor or sublimation pressure” value worked out at 101.3 ± 0.86 kPa.

The values are drawn from the NIST ThermoML archive (doi:10.1021/je100932m).
